Results taken from patent publication US20250113823A1, “Arthropod Control Compositions” (priority 2022, published 2025).
Read-outs that look alike come from different tables or passages of the source.

Assays:
[1] = system: Ixodes ricinus; experiment: Warm Plate assay, tick repellence; conditions: for pest or weed control at 400 µg/mL / pest or weed control at 2000 µg/mL / pest or weed control at 10000 µg/mL: Ixodes ricinus, read-out: Percentage of repellence of ticks Ixodes ricinus on the warm plate
[2] = system: Aedes aegypti; experiment: Warm Body assay, mosquito landings on treated warm body; format: in vivo; conditions: for pest or weed control at 1 % / pest or weed control at 0.04 %: read-out: repellence; for pest or weed control at 0.04 %: intermediate concentration of 0.04% (Table 3); for pest or weed control at 0.0016 %: read-out: reduce the number of mosquito landings
In short: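 Compounds in ethanol (100 μL, various concentrations) were applied to a sandblasted glass dish covering the warm body (28.3 cm^2), with ethanol as control. Landings were counted automatically from 30 non-blood-fed, sugar-fed Aedes aegypti Rockefeller females aged 5–10 days, under 150 lux.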

[3] = Aedes aegypti, 0.016 mg/mL (Table 3), read-out: Percentage of repellence of mosquitoes Aedes aegypti landing on the warm body
[4] = Aedes aegypti, 0.4 mg/mL (Table 3), read-out: Percentage of repellence of mosquitoes Aedes aegypti landing on the warm body
[5] = Aedes aegypti, 10 mg/mL (Table 3), read-out: Percentage of repellence of mosquitoes Aedes aegypti landing on the warm body
[6] = Aedes aegypti, highest tested concentration, 1% (Table 3)
[7] = Aedes aegypti, lowest concentration of 0.0016% (Table 3)
[8] = highest tested concentration, 1% (Table 3)
[9] = Aedes aegypti, read-out: Percentage of repellence of mosquitoes Aedes aegypti landing on the warm body

Structure (SMILES) | pest or weed control at 400 µg/mL [1] | pest or weed control at 2000 µg/mL [1] | pest or weed control at 10000 µg/mL [1] | ticks repelled ([1]; concentration of 1% (Table 10)) | pest or weed control at 16 µg/mL [2, 3] | pest or weed control at 400 µg/mL [2, 4] | pest or weed control at 10000 µg/mL [2, 5] | pest or weed control at 1 % [2, 6] | pest or weed control at 0.04 % ([2]; Aedes aegypti) | further results
COc1ccc(OC)c(OC)c1 [compound 1201, 1,2,4-trimethoxybenzene] | 0% | 23.1% | 100% | repel all the ticks |  |  |  |  |  | pest or weed control at 3.2 µg/mL ([2]; Aedes aegypti, 0.0032 mg/mL (Table 2), read-out: Percentage of repellence of mosquitoes Aedes aegypti landing on the warm body): 46%; pest or weed control at 16 µg/mL ([2]; Aedes aegypti, 0.016 mg/mL (Table 2), read-out: Percentage of repellence of mosquitoes Aedes aegypti landing on the warm body): 82%; pest or weed control at 35.7 µg/mL ([2]; Aedes aegypti, 0.0357 mg/mL (Table 2), read-out: Percentage of repellence of mosquitoes Aedes aegypti landing on the warm body): 58%; pest or weed control at 80 µg/mL ([2]; Aedes aegypti, 0.08 mg/mL (Table 2), read-out: Percentage of repellence of mosquitoes Aedes aegypti landing on the warm body): 72%; pest or weed control at 178 µg/mL ([2]; Aedes aegypti, 0.178 mg/mL (Table 2), read-out: Percentage of repellence of mosquitoes Aedes aegypti landing on the warm body): 63%; pest or weed control at 400 µg/mL ([2]; Aedes aegypti, 0.4 mg/mL (Table 2), read-out: Percentage of repellence of mosquitoes Aedes aegypti landing on the warm body): 79%; pest or weed control at 890 µg/mL ([2]; Aedes aegypti, 0.89 mg/mL (Table 2), read-out: Percentage of repellence of mosquitoes Aedes aegypti landing on the warm body): 95%; pest or weed control at 2000 µg/mL ([2]; Aedes aegypti, 2 mg/mL (Table 2), read-out: Percentage of repellence of mosquitoes Aedes aegypti landing on the warm body): 89%; pest or weed control at 10000 µg/mL ([2]; Aedes aegypti, 10 mg/mL (Table 2), read-out: Percentage of repellence of mosquitoes Aedes aegypti landing on the warm body): 96%; decrease the number of mosquito landings ([2]; lowest doses tested (0.00032% & 0.0016%) (Table 2)): two folds
C=CCc1cc(OC)c(O)c(OC)c1 [compound 1191, 4-allyl-2,6-dimethoxyphenol] | 41.7% | 58.3% | 91.7% |  |  |  |  |  |  | pest or weed control at 3.2 µg/mL ([2]; Aedes aegypti, 0.0032 mg/mL (Table 1), read-out: Percentage of repellence of mosquitoes Aedes aegypti landing on the warm body): 60%; pest or weed control at 7.1 µg/mL ([2]; Aedes aegypti, 0.0071 mg/mL (Table 1), read-out: Percentage of repellence of mosquitoes Aedes aegypti landing on the warm body): 52%; pest or weed control at 16 µg/mL ([2]; Aedes aegypti, 0.016 mg/mL (Table 1), read-out: Percentage of repellence of mosquitoes Aedes aegypti landing on the warm body): 70%; pest or weed control at 35.7 µg/mL ([2]; Aedes aegypti, 0.0357 mg/mL (Table 1), read-out: Percentage of repellence of mosquitoes Aedes aegypti landing on the warm body): 68%; pest or weed control at 53 µg/mL ([2]; Aedes aegypti, 0.053 mg/mL (Table 1), read-out: Percentage of repellence of mosquitoes Aedes aegypti landing on the warm body): 67%; pest or weed control at 80 µg/mL ([2]; Aedes aegypti, 0.08 mg/mL (Table 1), read-out: Percentage of repellence of mosquitoes Aedes aegypti landing on the warm body): 62%; pest or weed control at 119 µg/mL ([2]; Aedes aegypti, 0.119 mg/mL (Table 1), read-out: Percentage of repellence of mosquitoes Aedes aegypti landing on the warm body): 50%; pest or weed control at 178 µg/mL ([2]; Aedes aegypti, 0.178 mg/mL (Table 1), read-out: Percentage of repellence of mosquitoes Aedes aegypti landing on the warm body): 86%; pest or weed control at 267 µg/mL ([2]; Aedes aegypti, 0.267 mg/mL (Table 1), read-out: Percentage of repellence of mosquitoes Aedes aegypti landing on the warm body): 86%; pest or weed control at 400 µg/mL ([2]; Aedes aegypti, 0.4 mg/mL (Table 1), read-out: Percentage of repellence of mosquitoes Aedes aegypti landing on the warm body): 93%; pest or weed control at 598 µg/mL ([2]; Aedes aegypti, 0.598 mg/mL (Table 1), read-out: Percentage of repellence of mosquitoes Aedes aegypti landing on the warm body): 98%; pest or weed control at 890 µg/mL ([2]; Aedes aegypti, 0.89 mg/mL (Table 1), read-out: Percentage of repellence of mosquitoes Aedes aegypti landing on the warm body): 98%; pest or weed control at 2000 µg/mL ([2]; Aedes aegypti, 2 mg/mL (Table 1), read-out: Percentage of repellence of mosquitoes Aedes aegypti landing on the warm body): 97%; pest or weed control at 4470 µg/mL ([2]; Aedes aegypti, 4.47 mg/mL (Table 1), read-out: Percentage of repellence of mosquitoes Aedes aegypti landing on the warm body): 98%; pest or weed control at 10000 µg/mL ([2]; Aedes aegypti, 10 mg/mL (Table 1), read-out: Percentage of repellence of mosquitoes Aedes aegypti landing on the warm body): 100%; reduce mosquito landing ([2]; since the lowest concentrations assessed (Table 1)): ≥ 50%
C=CCOCc1ccc(O)c(OCC)c1 [compound 1479, 4-[(allyloxy)methyl]-2-ethoxyphenol] | 66.7% | 100% | 100% | repel all the ticks | 55% | 89% | 98% | > 90% | > 75% | ticks repelled ([1]; concentrations of 0.2% and 1% (Table 10)): repelled all ticks; fraction of the tested ticks repelled ([1]; lowest tested concentration of 0.04% (Table 10)): ⅔; pest or weed control at 0.0016 % [2, 7]: > 50%
CCOCc1ccc(O)c(OCC)c1 [compound 1482, 2-ethoxy-4-(ethoxymethyl)phenol] | 30.8% | 66.7% | 100% | repel all the ticks | 31% | 82% | 96% | > 90% | > 75% | 
CC=Cc1cccc(OC)c1OC [compound 1125, 1,2-dimethoxy-3-prop-1-enylbenzene] | 25% | 36.4% | 91.7% |  | 32% | 78% | 92% | > 90% | > 75% | repellence of ticks Ixodes ricinus ([1]; 1% of stimulus applied (Table 9)): above 90%
COc1ccc(C(C)=O)c(OC)c1 [compound 1557, 2,4-dimethoxyacetophenone] |  |  |  |  |  |  |  |  |  | Percentage of repellence of ticks Ixodes ricinus on the warm plate ([1]; 0.4 mg/mL (Table 10)): 25.0%; Percentage of repellence of ticks Ixodes ricinus on the warm plate ([1]; 2 mg/mL (Table 10)): 69.2%; Percentage of repellence of ticks Ixodes ricinus on the warm plate ([1]; 10 mg/mL (Table 10)): 66.7%; Percentage of repellence of mosquitoes Aedes aegypti landing on the warm body ([2]; 0.016 mg/mL (Table 3)): 81%; Percentage of repellence of mosquitoes Aedes aegypti landing on the warm body ([2]; 0.4 mg/mL (Table 3)): 93%; Percentage of repellence of mosquitoes Aedes aegypti landing on the warm body ([2]; 10 mg/mL (Table 3)): 96%
COc1ccc(C=O)c(OC)c1OC [compound 2267, 2,3,4-trimethoxybenzaldehyde] | 66.7% | 86.7% | 71.4% |  | 0% | 81% | 96% | > 90% | > 75% | 
COc1ccc(C=O)c(OC(C)=O)c1 [compound 1472, (2-formyl-5-methoxyphenyl) acetate] | 0% | 54.5% | 100% | repel all the ticks | 31% | 81% | 100% | > 90% | > 75% | mosquito landing within the two minutes of experiments [2, 8]: protect the attractive stimulus for any mosquito landing
COc1ccc(C=O)c(OC)c1 [compound 1558, 2,4-dimethoxybenzaldehyde] | 16.7% | 38.5% | 91.7% |  | 86% | 89% | 86% |  | > 75% | pest or weed control at 0.0016 % [2, 7]: > 50%
CC=Cc1ccc(OC)c(OC)c1 [compound 1195, 1,2-dimethoxy-4-prop-1-enylbenzene] | 46.2% | 76.9% | 100% | repel all the ticks |  |  |  |  |  | pest or weed control at 16 µg/mL [2, 9]: 56%; pest or weed control at 400 µg/mL [2, 9]: 69%; pest or weed control at 10000 µg/mL [2, 9]: 100%; pest or weed control at 0.0016 % ([2]; Aedes aegypti): > 50%; pest or weed control at 1 % ([2]; Aedes aegypti): > 90%; mosquito landing within the two minutes of experiments [2, 8]: protect the attractive stimulus for any mosquito landing
